Source: patent US10316056B2, “Chemical compounds and use thereof for improving muscular quality” (BIOPHYTIS, priority 2014, dated 2019)

What was measured:
[1] = system: muscle cells derived from the C2C12 murine line; conditions: literature, Kazi et al., 2010; cited from earlier work
[2] = system: phosphorylations that activate proteins such as Akt or S6 kinase; conditions: could reach; literature, Kazi et al., 2010; cited from earlier work
[3] = system: myostatin transcript; assay: Mice subjected to a high-fat diet: myostatin transcript of the Soleus muscle; type: in vivo, C57BL/6J mice; conditions: 5 mg/kg orally; high-fat diet for 6 weeks; FIG. 4
Experimental: (§1) The 20E as comparative compound and the compounds according to the invention (Nos. 51 and 93) were administered orally, at a dose of 5 mg/kg of body weight, to 12-week-old C57BL/6J mice subjected to a high-fat diet for 6 weeks. The effect of the compounds on the weight and the amount of proteins of the Soleus muscle and also the transcripts of genes involved in myogenesis were evaluated.
In order to carry out the gene expression analysis, the muscle tissues were homogenized in a Trizol solution (500 μl), and the RNAs were extracted and purified using the phenol/chloroform method. An amount of […] of RNA was used as template for the synthesis of the first cDNA strand using oligo (dT)s as primers and the AMV reverse transcriptase enzyme as described by the supplier (Applied Biosystems 4368814). The q-PCRs were then carried out using a 7900HT machine equipped with a rapid system for real-time detection by PCR (Applied Biosystems) and the standard qPCR program (1 cycle of 95° C. for 15 min, 40 cycles of 95° C. for 15 s and 60° C. for 1 min, a 60-95° C. melt curve for the Sybergreen probes). The experiments are carried out in a Sybergreen SYBR master mix (Applied Biosystems) containing the 100 ng cDNA samples and a set of primers which bind to the two different exons and at a final concentration of 200 nM.
(§2) The relative differences in gene expression between treatments are expressed as increase or decrease in the number of cycle times [Ct] compared with the control group, the [Ct] value of each gene having been standardized with the beta-actin gene.
(§3) The in vivo study is carried out by evaluating the effect of 20E as comparative compound and of the molecules according to the invention (Nos. 51 and 93) administered orally, at a dose of 5 mg/kg of body weight, to C57BL/6 mice subjected to a high-fat diet for 6 weeks. The effect of the molecules on the weight and the amount of proteins of the Soleus muscle and also the transcripts of genes involved in myogenesis were evaluated.

[4] = system: S6 kinase (S6K1) phosphorylation in C2C12 cells; assay: Phosphorylation of the S6 kinase in C2C12 cells (ELISA pS6K T389), protein synthesis; type: cell-based, mouse; conditions: test compounds and 20E reference (10 μM); C2C12, 2 h
Experimental: After several experiments in which the C2C12 cells differentiated into myotubes were incubated in the presence of IGF-1 or 20E for 2 h 30 or 6 h, two screening tests were developed. Thus, the phosphorylation of the S6 protein kinase and the expression of the myostatin gene were studied in order to determine their modulation by a growth hormone or an ecdysone and to characterize these modulations from a statistical point of view.
The C2C12 myoblast cells (ATCC CRL-1772) are seeded into 6-well plates at a density of 170 000 cells per well and cultured in a DMEM medium containing glucose in a proportion of 4.5 g/l and supplemented with fetal calf serum (10%) and with antibiotics (penicillin and streptomycin). Forty-eight hours later, the myoblasts are induced to differentiate by partial serum depletion (2% instead of 10%) for 5 days. The cells are then placed in a medium which is glucose-depleted (DMEM containing 1 g/l of glucose) and serum-free in the presence of the test molecules or of the references (100 ng/ml IGF-1 or 10 μM 20E) for 2 h. At the end of the experiment, the cells are lysed in a commercial lysis buffer (Invitrogen FNN0011) supplemented with a commercial mixture of anti-proteases (Roche 05056489001). After centrifugation, the cytoplasmic fraction containing the soluble proteins is kept and the protein concentration is determined using a commercial kit (Biorad 500-0114), the principle of which is composed of assaying by the Lowry method. The assaying of the S6 kinase phosphorylation is carried out using a commercial ELISA (Enzyme Linked ImmunoSorbent Assay) kit (Cell signaling 7063). Briefly, 50 μg of protein lysate are deposited in the wells of a 96-well microplate and incubated overnight at 4° C. with the solution of antigen specific for the pS6 kinase threonine 389 antibody. The binding of the antigen to the bottom of the wells is done electrostatically. The solution of antibody to be assayed (pS6K T389) is then incubated at 37° C. in the wells for 2 hours. The antibodies bind specifically to the antigen. The wells are then washed with washing buffer in order to remove the antigen-specific primary antibodies to be assayed which are in excess. The third step consists in binding the detection antibody. The solution of detection antibodies is incubated at 37° C. in the wells for 1 hour. The wells are then washed in order to remove the excess detection antibodies. It should be noted that the detection antibodies are coupled to an enzyme which, in the presence of its substrate, converts it into a reaction product that can be detected and measured by virtue of the appearance of a coloration. […] The appearance of a blue coloration in the substrate indicates the presence of the antibody to be assayed. In order to prevent any saturation phenomenon, a stop solution (generally containing […]) is added and brings about a change in coloration, which goes from blue to yellow. The strength thereof is proportional to the amount of enzyme present and thus to the concentration of antibody sought. The strength of the signal is measured using spectrophotometry at a wavelength of 450 nm.

[5] = system: myogenin transcripts; assay: Mice subjected to a high-fat diet: myogenin transcripts of the Soleus muscle; type: in vivo, C57BL/6J mice; conditions: 5 mg/kg orally; high-fat diet for 6 weeks; FIG. 5B
Experimental: as §1
(§4) Myogenesis, which is the process for forming muscle tissues, is controlled by several myogenic transcription factors which act as end effectors of the signaling cascade and produce transcripts involved in the various stages of development. The roles of the transcription factors have been described in various journals (Sabourin and Rudnicki 2000 and Le Grand and Rudnicki 2007). The Pax7 protein (Paired-box protein 7) maintains a population of satellite cells in quiescence and, with Myf5 (Myogenic factor 5), plays a role in the expansion of activated myoblasts. The MyoD protein (Myoblast Determination protein) appears to determine the differentiation potential of activated myoblasts, and cooperates with myogenin and the MEF2 (Myocyte Enhancer Factor 2) protein to control and bring about differentiation. Finally, MRF4 (Muscle-specific Regulatory Factor 4) is required for hypertrophy, even though it probably plays other roles. […]
as §2, §3

[6] = rat, in vivo, po
Experimental: The pharmacokinetics of the compounds were evaluated orally using male Wistar rats (Charles River). […] The novel compounds according to the invention were administered at a dose of 10 mg/kg of body weight in the form of a mixture of 4 to 6 products. After administration, the blood was sampled from the tail at t=0.25 h, 0.5 h, 1 h, 3 h, 6 h and 8 h. The blood samples were centrifuged and the plasmas removed.

[7] = system: MyoD transcripts; assay: Mice subjected to a high-fat diet: MyoD transcripts of the Soleus muscle; type: in vivo, C57BL/6J mice; conditions: 5 mg/kg orally; high-fat diet for 6 weeks; FIG. 5A
Experimental: as §1, §4, §2, §3

[8] = system: Soleus muscle of C57BL/6 mice subjected to a high-fat diet; assay: Mice subjected to a high-fat diet: weight and amount of proteins of the Soleus muscle; type: in vivo, C57BL/6J mice; conditions: 5 mg/kg orally, high-fat diet for 6 weeks, compared with the control group
Experimental: as §1
The amount of proteins is determined by first lysing the muscles sampled in a 0.1N NaOH solution with the FastPrep technique. The proteins are quantified by means of a colorimetric assay derived from the Lowry method.
as §3

[9] = system: Myf5 gene transcripts; assay: Mice subjected to a high-fat diet: Myf5 transcripts; type: in vivo, C57BL/6J mice; conditions: 5 mg/kg orally; high-fat diet for 6 weeks
Experimental: as §1, §4, §2, §3

Molecule | increase in protein synthesis [1] | stimulation of targets of the signaling pathway [2] | myostatin expression in the Soleus muscle [3] | S6K1 phosphorylation level [4] | transcript of the myogenin gene [5] | Cexp (coefficient of exposure) [6] | AUC ([6]; 50 mg/kg) | Cmax ([6]; 50 mg/kg) | Tmax ([6]; 50 mg/kg) | transcripts of the MyoD gene [7] | weight of the Soleus muscle ([8]; FIG. 3A) | amount of proteins of the Soleus muscle ([8]; FIG. 3B) | transcripts of the Myf5 gene [9]
IGF-1: reference product (100 ng/ml) that stimulates protein synthesis | 20% | about 200% | – | – | – | – | – | – | – | – | – | – | –
CC(C)(O)CC[C@@H](O)[C@](C)(O)[C@H]1CC[C@@]2(O)C3=CC(=O)[C@@H]4C[C@@H](O)[C@@H](O)C[C@]4(C)[C@H]3CC[C@]12C [Compound 20E, 20-hydroxyecdysone, reference compound] | – | – | comparably inhibit | 120% | increase | 1.0 | 382 ng·h/mL | 68 ng/mL | 30 min | increase | increases | increases | increase
